Tests used:
[1] = system: MMP-9; experiment: N-terminomic (TMT) analysis of MMP-treated HEK293 secretome: isotopic enrichment of novel N-termini; assay type: biochemical, human; conditions: for isotopic enrichment (log2(ratio)) (acc.to MMP9): HEK293 proteins; for isotopic enrichment (log2(ratio)): MMP9 cleavages in HEK293 cell proteins, determined by LC-MS/MS, log2(ratio) range (>3σ, 2σ-3σ, 1σ-2σ)
Experimental: (§1) This was done to achieve a reasonable compromise between the false positive and false negative rates based on the statistical model developed by the authors. […] (See Methods for details).
(§2) HEK293 cells were seeded in 150-mm tissue culture dishes (Corning) and grown to confluence. The confluent cultures were washed with PBS several times to remove serum proteins and kept in serum-free DMEM supplemented with 1 μM GM6001 for 72 hours at 37 C, 5% CO2. The conditioned media was centrifuged at 10,000 x g for 30 minutes at 4 C and concentrated ~100-fold using Centricon Plus-70 (AMD Millipore) 3-kDa m.w. cut-off ultrafilter, and the buffer was exchanged to 50 mM HEPES pH 7.0 containing 150 mM NaCl and 10 mM CaCl2 (Reaction Buffer) using a PD-10 desalting column (GE Healthcare). Aliquots containing 240 μg total protein were incubated at 37 C in the presence of 750 nM MMP2 or 9 or the Reaction Buffer alone for 2 hours. Each reaction was carried out in duplicate. The reactions were stopped by addition of 20 mM EDTA and subjected to denaturation/reduction (4M Urea and 10 mM TCEP, 1 h, 22°C) and alkylation (20 mM iodoacetamide, 30 min, 22°C, in dark). […] The TMT-labeled samples were pooled together, and subjected to TCA precipitation (20% TCA, 16 h, 4°C). Each pellet was washed with -20°C acetone, recovered in 50 mM Tris-HCl pH 8.0, and then digested with trypsin/Lys-C (Promega) for 16 h at 37°C. Digestions were stopped with 0.2% TFA and centrifuged to remove insoluble material. The supernatants were then desalted using Sep-Pak C18 cartridge (50 mg), and then lyophilized.
(§3) Dried pooled sample was reconstituted in 20 mM ammonium formate pH ~10 and fractionated using a Waters Acquity BEH C18 column (2.1x 15 cm, 1.7 μm pore size) mounted on an M-Class Ultra Performance Liquid Chromatography (UPLC) system (Waters). […] A total of 32 fractions were collected and pooled in a non-contiguous manner into 16 total fractions. Pooled fractions were dried to completeness in a SpeedVac concentrator prior to mass spectrometry analysis.
(§4) Dried peptide fractions were reconstituted with 2% ACN-0.1% FA and analyzed by LC-MS/MS using a Proxeon EASY nanoLC system (Thermo Fisher Scientific) coupled to a Q-Exactive Plus mass spectrometer (Thermo Fisher Scientific). […] The mass spectrometer was operated in positive data-dependent acquisition mode. MS1 spectra were measured with a resolution of 70,000 (AGC target: 1e6; mass range: 350–1700 m/z).
(§5) The false discovery rate (FDR) filter for spectrum and protein identification was set to 1%. Carbamidomethylation of cysteines was searched as a fixed modification, while oxidation of methionines and N-terminal acetylation were searched as variable modifications. Enzyme was set to trypsin in a semispecific mode and a maximum of two missed cleavages was allowed for searching. To obtain quantification of the TMT-labeled N-termini, two independent searches were performed–one with TMT10plex MS2 N-terminal reporter quantification and the other for quantification of N-terminal and lysine sidechain.

[2] = system: MMP-2; experiment: as above; assay type: biochemical, human; conditions: for isotopic enrichment (log2(ratio)): MMP2 cleavages in HEK293 cell proteins, determined by LC-MS/MS, novel N-termini, sections log2(ratio) >3σ, 2σ-3σ, 1σ-2σ, RP above 4.5
Experimental: as §1, §2, §3, §4, §5

[3] = MS detected cleavage sequence, unique part of MMP2 selectome
[4] = MS detected cleavage sequence, HEK293 proteins, unique part of MMP2 selectome
[5] = MMP9, common set of MMP2-9 selectome, LC-MS/MS
[6] = MS detected cleavage sequence, common MMP2-9 selectome
[7] = MMP2 cleaved HEK293 proteins, common set of MMP2-9 selectome, LC-MS/MS
[8] = MS detected cleavage sequence, HEK293 proteins, common MMP2-9 selectome

## LFIGG-LSFETT
[1]; [3]
  isotopic enrichment (log2(ratio)) (acc.to MMP9): 1.4957 log2(ratio)
[2]; [4]
  isotopic enrichment (log2(ratio)) (acc.to MMP2): 2.3505 log2(ratio)

## GFLAW-LYNESP
[1]; [5]
  isotopic enrichment (log2(ratio)) (acc.to MMP9): 1.774
[1]
  isotopic enrichment (log2(ratio)): 1.774
[1]; [6]
  isotopic enrichment (log2(ratio)) (acc.to MMP9): 1.774 log2(ratio)
[2]; [7]
  isotopic enrichment (log2(ratio)) (acc.to MMP2): 2.43
[2]; [8]
  isotopic enrichment (log2(ratio)) (acc.to MMP2): 2.43 log2(ratio)

## SEPAD-FKVDED
[1]; [5]
  isotopic enrichment (log2(ratio)) (acc.to MMP9): 1.104
[2]
  isotopic enrichment (log2(ratio)): 1.891 log2(ratio)
[2]; [7]
  isotopic enrichment (log2(ratio)) (acc.to MMP2): 1.891

## ISPGM-IKDCGA
[1]; [5]
  isotopic enrichment (log2(ratio)) (acc.to MMP9): 2.036
[1]
  isotopic enrichment (log2(ratio)): 2.036
[1]; [6]
  isotopic enrichment (log2(ratio)) (acc.to MMP9): 2.036 log2(ratio)
[2]; [7]
  isotopic enrichment (log2(ratio)) (acc.to MMP2): 1.183
[2]; [8]
  isotopic enrichment (log2(ratio)) (acc.to MMP2): 1.183 log2(ratio)

## APPAA-VAAVAG
[1]
  isotopic enrichment (log2(ratio)): 1.731
[1]; [6]
  isotopic enrichment (log2(ratio)) (acc.to MMP9): 1.731 log2(ratio)
[2]; [8]
  isotopic enrichment (log2(ratio)) (acc.to MMP2): 2.4957 log2(ratio)

## GYIGT-YCGQPV
[1]; [3]
  isotopic enrichment (log2(ratio)) (acc.to MMP9): 2.478 log2(ratio)
[2]; [4]
  isotopic enrichment (log2(ratio)) (acc.to MMP2): 2.548 log2(ratio)

## HLNRG-FHQEVF
[1]; [3]
  isotopic enrichment (log2(ratio)) (acc.to MMP9): 1.782 log2(ratio)
[2]; [4]
  isotopic enrichment (log2(ratio)) (acc.to MMP2): 1.531 log2(ratio)

## NFIQS-IISTVE
[1]; [3]
  isotopic enrichment (log2(ratio)) (acc.to MMP9): 1.111 log2(ratio)
[2]
  isotopic enrichment (log2(ratio)): 0.903 log2(ratio)

## FNPLS-LEELGS
[1]
  isotopic enrichment (log2(ratio)): 1.82
[1]; [6]
  isotopic enrichment (log2(ratio)) (acc.to MMP9): 1.82 log2(ratio)
[2]; [8]
  isotopic enrichment (log2(ratio)) (acc.to MMP2): 0.84 log2(ratio)

## FSVSS-LAEGSV
[1]; [5]
  isotopic enrichment (log2(ratio)) (acc.to MMP9): 1.22
[2]
  isotopic enrichment (log2(ratio)): 1.257 log2(ratio)
[2]; [7]
  isotopic enrichment (log2(ratio)) (acc.to MMP2): 1.257

## DMAAA-MKAVTE
[1]; [5]
  isotopic enrichment (log2(ratio)) (acc.to MMP9): 1.328
[2]
  isotopic enrichment (log2(ratio)): 1.766 log2(ratio)
[2]; [7]
  isotopic enrichment (log2(ratio)) (acc.to MMP2): 1.766

## GGGSA-LAGGAG
[1]; [3]
  isotopic enrichment (log2(ratio)) (acc.to MMP9): 2.488 log2(ratio)
[2]; [4]
  isotopic enrichment (log2(ratio)) (acc.to MMP2): 3.0018 log2(ratio)

## VTPAN-ASGIND
[1]; [3]
  isotopic enrichment (log2(ratio)) (acc.to MMP9): 1.864 log2(ratio)
[2]; [4]
  isotopic enrichment (log2(ratio)) (acc.to MMP2): 0.9486 log2(ratio)

## PFPDG-LAEDID
[1]
  isotopic enrichment (log2(ratio)): 3.878
[1]; [6]
  isotopic enrichment (log2(ratio)) (acc.to MMP9): 3.878 log2(ratio)
[2]; [8]
  isotopic enrichment (log2(ratio)) (acc.to MMP2): 0.9928 log2(ratio)

## QLNAQ-LAAGNP
[1]; [3]
  isotopic enrichment (log2(ratio)) (acc.to MMP9): 0.8237 log2(ratio)
[2]; [4]
  isotopic enrichment (log2(ratio)) (acc.to MMP2): 1.66 log2(ratio)

## HLVRN-IQLEQP
[1]; [5]
  isotopic enrichment (log2(ratio)) (acc.to MMP9): 3.981
[1]
  isotopic enrichment (log2(ratio)): 3.981
[1]; [6]
  isotopic enrichment (log2(ratio)) (acc.to MMP9): 3.981 log2(ratio)
[2]; [7]
  isotopic enrichment (log2(ratio)) (acc.to MMP2): 3.263
[2]; [8]
  isotopic enrichment (log2(ratio)) (acc.to MMP2): 3.263 log2(ratio)

## PTPVP-VVGSQM
[1]; [5]
  isotopic enrichment (log2(ratio)) (acc.to MMP9): 2.707
[1]
  isotopic enrichment (log2(ratio)): 2.707
[1]; [6]
  isotopic enrichment (log2(ratio)) (acc.to MMP9): 2.707 log2(ratio)
[2]; [7]
  isotopic enrichment (log2(ratio)) (acc.to MMP2): 1.915
[2]; [8]
  isotopic enrichment (log2(ratio)) (acc.to MMP2): 1.915 log2(ratio)

## YRPVA-VALDTK
[1]; [5]
  isotopic enrichment (log2(ratio)) (acc.to MMP9): 2.604
[1]
  isotopic enrichment (log2(ratio)): 2.604
[1]; [6]
  isotopic enrichment (log2(ratio)) (acc.to MMP9): 2.604 log2(ratio)
[2]; [7]
  isotopic enrichment (log2(ratio)) (acc.to MMP2): 1.934
[2]; [8]
  isotopic enrichment (log2(ratio)) (acc.to MMP2): 1.934 log2(ratio)

## AGAAA-LSSASS
[1]; [5]
  isotopic enrichment (log2(ratio)) (acc.to MMP9): 3.911
[1]
  isotopic enrichment (log2(ratio)): 3.911
[1]; [6]
  isotopic enrichment (log2(ratio)) (acc.to MMP9): 3.911 log2(ratio)
[2]; [7]
  isotopic enrichment (log2(ratio)) (acc.to MMP2): 2.491
[2]; [8]
  isotopic enrichment (log2(ratio)) (acc.to MMP2): 2.491 log2(ratio)

## FSLFG-LGGEPG
[1]; [5]
  isotopic enrichment (log2(ratio)) (acc.to MMP9): 2.104
[1]
  isotopic enrichment (log2(ratio)): 2.104
[1]; [6]
  isotopic enrichment (log2(ratio)) (acc.to MMP9): 2.104 log2(ratio)
[2]; [7]
  isotopic enrichment (log2(ratio)) (acc.to MMP2): 1.417
[2]; [8]
  isotopic enrichment (log2(ratio)) (acc.to MMP2): 1.417 log2(ratio)

## EGPYS-ISVLYG
[1]; [5]
  isotopic enrichment (log2(ratio)) (acc.to MMP9): 0.9411
[2]
  isotopic enrichment (log2(ratio)): 1.176 log2(ratio)
[2]; [7]
  isotopic enrichment (log2(ratio)) (acc.to MMP2): 1.176

## MSPQL-LYDAAP
[1]
  isotopic enrichment (log2(ratio)): 1.465
[1]; [6]
  isotopic enrichment (log2(ratio)) (acc.to MMP9): 1.465 log2(ratio)
[2]; [8]
  isotopic enrichment (log2(ratio)) (acc.to MMP2): 0.5656 log2(ratio)

From PMC7932537, “Quantitative profiling of protease specificity” (PLoS Computational Biology, 2021)
